Data reported in patent US20170000133A1, “BENZOXABOROLE FUNGICIDES” (SYNGENTA PARTICIPATIONS AG, priority 2013, published 2017).

The compounds below were run on Pythium ultimum (assay: Pythium ultimum / liquid culture (seedling damping off)). Settings: Globisporangium ultimum, read-out: disease control (inhibition of growth determined photometrically).
Format: cell-based

Structure (SMILES)	inhibition at 200 ppm
COP(=O)(CCOC(=O)c1cc2c(cc1Cl)COB2O)OC [Compound 228]	≥ 80%
COP(=O)(CCOC(=O)c1cc2c(cc1F)COB2O)OC [Compound 416]	≥ 80%

Same assay, conditions: Globisporangium ultimum; 200 ppm; potato dextrose broth, 24° C., 2-3 days after application; read-out: disease control (inhibition of growth determined photometrically)

Structure (SMILES)	inhibition at 200 ppm
O=C(NCc1ccc(Cl)nc1)c1cc2c(cc1Cl)COB2O [Compound 105]	≥ 80%
Cc1cc(=O)oc2cc(NC(=O)c3cc4c(cc3F)COB4O)ccc12 [Compound 172]	≥ 80%
O=C(Nc1ccc2ccccc2n1)c1ccc2c(c1)B(O)OC2 [Compound 300]	≥ 80%
CC(NC(=O)c1cc2c(cc1Cl)COB2O)c1ccccc1 (centres unmarked) [Compound 75]	≥ 80%
O=C(NCc1ccc(-n2cccn2)cc1)c1ccc2c(c1)B(O)OC2 [Compound 272]	≥ 80%
CS(=O)(=O)c1ccc(CNC(=O)c2cc3c(cc2F)COB3O)cc1 [Compound 86]	≥ 80%
Cc1cccnc1NC(=O)c1cc2c(cc1Cl)COB2O [Compound 151]	≥ 80%
O=C(NC1CCSC1=O)c1cc2c(cc1Cl)COB2O (centres unmarked) [Compound 55]	≥ 80%
Cc1cc(O)nc(NC(=O)c2ccc3c(c2)B(O)OC3)n1 [Compound 299]	≥ 80%
CSc1nc(NC(=O)c2cc3c(cc2Cl)COB3O)n[nH]1 [Compound 149]	≥ 80%
O=C(NCc1ccc2c(c1)OCCO2)c1ccc2c(c1)B(O)OC2 [Compound 269]	≥ 80%
O=C(NCCc1cccs1)c1cc2c(cc1Cl)COB2O [Compound 81]	≥ 80%
COCCOCCOCCOC(=O)c1cc2c(cc1F)COB2O [Compound 432]	≥ 80%
O=C(Nc1ccc(-n2cccc2)cc1)c1ccc2c(c1)B(O)OC2 [Compound 287]	≥ 80%
Cn1cc(CCCOC(=O)c2cc3c(cc2Cl)COB3O)cn1 [Compound 219]	≥ 80%
O=C(Nc1ccccc1-c1cc2ccccc2[nH]1)c1cc2c(cc1Cl)COB2O [Compound 135]	≥ 80%
CN(C)S(=O)(=O)c1ccc(NC(=O)c2cc3c(cc2F)COB3O)cc1 [Compound 173]	≥ 80%
O=C(OC1CCOC1)c1cc2c(cc1F)COB2O (centres unmarked) [Compound 426]	≥ 80%
O=C(NCc1ccccc1C(F)(F)F)c1ccc2c(c1)B(O)OC2 [Compound 275]	≥ 80%
O=C(OCCCC(=O)N1CCCC1)c1ccc2c(c1)B(O)OC2 [Compound 346]	≥ 80%
O=C(Nc1ccc(-n2cccc2)cc1)c1cc2c(cc1F)COB2O [Compound 159]	≥ 80%
O=C(NCCN1CCN(Cc2ccccc2)CC1)c1ccc2c(c1)B(O)OC2 [Compound 278]	≥ 80%
O=C(NCCOc1ccccc1)c1cc2c(cc1F)COB2O [Compound 117]	≥ 80%

Structure (SMILES)	inhibition at 200 ppm
O=C(NCc1ccc(Cl)nc1)c1ccc2c(c1)B(O)OC2 [Compound 276]	≥ 80%
O=C(NCC1CCCO1)c1cc2c(cc1Cl)COB2O (centres unmarked) [Compound 64]	≥ 80%
CSCCNC(=O)c1cc2c(cc1F)COB2O [Compound 134]	≥ 80%
CS(=O)(=O)CCOC(=O)c1ccc2c(c1)B(O)OC2 [Compound 358]	≥ 80%
O=C(Nc1ccc(S(=O)(=O)Nc2ccccn2)cc1)c1ccc2c(c1)B(O)OC2 [Compound 296]	≥ 80%
O=C(NCC(O)c1ccc(O)cc1)c1ccc2c(c1)B(O)OC2 (centres unmarked) [Compound 249]	≥ 80%
CCOC(=O)C1CC=CCC1NC(=O)c1ccc2c(c1)B(O)OC2 (centres unmarked) [Compound 248]	≥ 80%
C#CC1(NC(=O)c2ccc3c(c2)B(O)OC3)CCCCC1 [Compound 254]	≥ 80%
O=C(NCCC(F)(F)F)c1cc2c(cc1F)COB2O [Compound 72]	≥ 80%
O=C(NCCC1OCCO1)c1cc2c(cc1F)COB2O [Compound 92]	≥ 80%
CC(CN1CCOCC1)OC(=O)c1cc2c(cc1F)COB2O (centres unmarked) [Compound 383]	≥ 80%
CSCCNC(=O)c1cc2c(cc1Cl)COB2O [Compound 101]	≥ 80%
O=C(NCCC1OCCO1)c1ccc2c(c1)B(O)OC2 [Compound 255]	≥ 80%
COc1ccc(CNC(=O)c2cc3c(cc2Cl)COB3O)cc1 [Compound 91]	≥ 80%
Cc1onc(-c2ccccc2)c1NC(=O)c1ccc2c(c1)B(O)OC2 [Compound 301]	≥ 80%
COc1ccc(NC(=O)c2cc3c(cc2Cl)COB3O)c(OC)c1 [Compound 118]	≥ 80%
O=C(NCCc1ccccc1)c1cc2c(cc1F)COB2O [Compound 111]	≥ 80%
O=C(NCCc1cccs1)c1cc2c(cc1F)COB2O [Compound 115]	≥ 80%
Cc1onc(-c2ccccc2)c1NC(=O)c1cc2c(cc1Cl)COB2O [Compound 156]	≥ 80%
Cc1cc(O)nc(NC(=O)c2cc3c(cc2F)COB3O)n1 [Compound 178]	≥ 80%
COCCOCCOCCOC(=O)c1cc2c(cc1Cl)COB2O [Compound 239]	≥ 80%
CSc1nc(NC(=O)c2cc3c(cc2F)COB3O)n[nH]1 [Compound 177]	≥ 80%
O=C(NCCc1c[nH]c2ccccc12)c1cc2c(cc1F)COB2O [Compound 130]	≥ 80%

Structure (SMILES)	inhibition at 200 ppm
O=C(NC1CCSC1=O)c1cc2c(cc1F)COB2O (centres unmarked) [Compound 76]	≥ 80%
Cc1nnc(NC(=O)c2cc3c(cc2Cl)COB3O)s1 [Compound 164]	≥ 80%
Cc1cc(NC(=O)c2cc3c(cc2F)COB3O)n(C)n1 [Compound 175]	≥ 80%
CC(CN1CCOCC1)OC(=O)c1ccc2c(c1)B(O)OC2 (centres unmarked) [Compound 322]	≥ 80%
Cc1cc(O)nc(NC(=O)c2cc3c(cc2Cl)COB3O)n1 [Compound 153]	≥ 80%
O=C(OC1CCOC1)c1cc2c(cc1Cl)COB2O (centres unmarked) [Compound 235]	≥ 80%
O=C(NCc1ccccn1)c1ccc2c(c1)B(O)OC2 [Compound 52]	≥ 80%
O=C(OC1COC1)c1ccc2c(c1)B(O)OC2 [Compound 363]	≥ 80%
O=C(OC1COC1)c1cc2c(cc1Cl)COB2O [Compound 234]	≥ 80%
O=C(OCCCC(=O)N1CCCC1)c1cc2c(cc1Cl)COB2O [Compound 220]	≥ 80%
O=C(NCc1ccc(-n2cccn2)cc1)c1cc2c(cc1F)COB2O [Compound 126]	≥ 80%
O=C(NCCc1ccc2c(c1)OCO2)c1cc2c(cc1F)COB2O [Compound 82]	≥ 80%
O=C(OCC1CCCO1)c1cc2c(cc1Cl)COB2O (centres unmarked) [Compound 212]	≥ 80%
Cc1csc(NC(=O)c2cc3c(cc2F)COB3O)n1 [Compound 176]	≥ 80%
CN(C)S(=O)(=O)c1ccc(NC(=O)c2ccc3c(c2)B(O)OC3)cc1 [Compound 295]	≥ 80%
CS(=O)(=O)CCOC(=O)c1cc2c(cc1F)COB2O [Compound 421]	≥ 80%
O=C(NCCC(F)(F)F)c1ccc2c(c1)B(O)OC2 [Compound 246]	≥ 80%
O=C(NCC1CCCO1)c1ccc2c(c1)B(O)OC2 (centres unmarked) [Compound 256]	≥ 80%
COC(=O)c1cc2cc(NC(=O)c3ccc4c(c3)B(O)OC4)ccc2s1 [Compound 288]	≥ 80%
Cc1nnc(NC(=O)c2ccc3c(c2)B(O)OC3)s1 [Compound 305]	≥ 80%
CC(NC(=O)c1ccc2c(c1)B(O)OC2)c1ccccc1 (centres unmarked) [Compound 263]	≥ 80%
O=C(NCCc1ccc2c(c1)OCO2)c1cc2c(cc1Cl)COB2O [Compound 58]	≥ 80%
Cc1onc(-c2ccccc2)c1NC(=O)c1cc2c(cc1F)COB2O [Compound 180]	≥ 80%

Structure (SMILES)	inhibition at 200 ppm
Cc1cc(C)c2c(NC(=O)c3ccc4c(c3)B(O)OC4)[nH]nc2n1 [Compound 309]	≥ 80%
O=C(NCc1ccccc1)c1cc2c(cc1Cl)COB2O [Compound 71]	≥ 80%
O=C(NCCC(F)(F)F)c1cc2c(cc1Cl)COB2O [Compound 54]	≥ 80%
C#CC1(NC(=O)c2cc3c(cc2Cl)COB3O)CCCCC1 [Compound 62]	≥ 80%
O=C(Nc1ccccc1Cl)c1cc2c(cc1Cl)COB2O [Compound 108]	≥ 80%
O=C(Nc1cccc2ncccc12)c1cc2c(cc1F)COB2O [Compound 152]	≥ 80%
O=C(NCCOc1ccccc1)c1cc2c(cc1Cl)COB2O [Compound 83]	≥ 80%
O=C(Nc1ccc2ncsc2c1)c1cc2c(cc1F)COB2O [Compound 166]	≥ 80%
O=C(NCc1cccnc1)c1ccc2c(c1)B(O)OC2 [Compound 259]	≥ 80%
Cc1cccc(Cl)c1NC(=O)c1ccc2c(c1)B(O)OC2 [Compound 281]	≥ 80%
O=C(Nc1ccccc1N1CCOCC1)c1ccc2c(c1)B(O)OC2 [Compound 293]	≥ 80%
O=C(Nc1cccc(F)c1)c1cc2c(cc1Cl)COB2O [Compound 120]	≥ 80%
O=C(Nc1cc(-c2ccccc2)[nH]n1)c1cc2c(cc1Cl)COB2O [Compound 160]	≥ 80%
O=C(Nc1cc(-c2ccccc2)[nH]n1)c1ccc2c(c1)B(O)OC2 [Compound 303]	≥ 80%
O=C(OCCCC(=O)N1CCCC1)c1cc2c(cc1F)COB2O [Compound 408]	≥ 80%
O=C(NCC1(O)CCCCC1)c1ccc2c(c1)B(O)OC2 [Compound 247]	≥ 80%
O=C(NCCCCl)c1cc2c(cc1F)COB2O [Compound 70]	≥ 80%
O=C(NCC1(O)CCCCC1)c1cc2c(cc1F)COB2O [Compound 74]	≥ 80%
O=C(NCCc1c[nH]c2ccccc12)c1ccc2c(c1)B(O)OC2 [Compound 274]	≥ 80%
O=C(OC1CCOCC1)c1cc2c(cc1F)COB2O [Compound 428]	≥ 80%
O=C(NCc1ccc(-n2cccn2)cc1)c1cc2c(cc1Cl)COB2O [Compound 93]	≥ 80%
